Data taken from US20260263384A1, “TRANSDERMAL ELLECTRICALLY CONDUCTIVE PATCH” (KIKKOMAN CORPORATION, priority 2023, published 2026).
Counter-ions that a name gives are not always drawn.

Experiments:
[1] = test system: skin-mimicking three-dimensional epidermal models (EPI-MODEL12, J-TEC); assay: Evaluation of electro-osmosis (electro-permeation): drug permeation through three-dimensional epidermal model into reservoir solution with vs without electric current (permeation evaluation system 1), HPLC; conditions: ketoprofen solution pH 6.6, 20 μA for 2 hours
Experimental: A specific method for evaluating drug permeation into the skin is described. A 7 mm×7 mm carbon cloth is coated with 80 µl of a solution of multi-walled carbon nanotubes in two separate instances and dried at 60° C. The carbon cloth is washed with pure water and further dried to prepare an electrode to be provided directly on cells. Skin-mimicking three-dimensional epidermal models (EPI-MODEL12, J-TEC) are used as the cells. Phosphate-buffered saline (PBS) is used as a reservoir solution. An Ag/AgCl electrode is introduced into the reservoir solution. Subsequently, each electrode is electrically connected to a […] source meter. A drug is dissolved in an appropriate solution. The drug solution of 400 µl is added dropwise to the cells, and the carbon cloth electrode is soaked therein. First, an electrode on the cells is connected to the positive electrode, and the Ag/AgCl electrode on the reservoir solution side is connected to the negative electrode. […] In the same manner, comparative experiment of adding 400 µl of the same drug solution dropwise to the cells is performed without the application of the electric current. […] Analysis can be performed by HPLC analysis, mass analysis, or other means. The amount of permeation with the application of the electric current is compared with that without the application of the electric current. […]

[2] = cited from earlier work

| amount of permeation compared with a system without applying an electric current (100%) ([1]; electrode on the cells connected to positive electrode) | amount of permeation relative to that measured in a system without applying an electric current (100%) ([1]; reversed direction, electrode on the cells connected to negative electrode) | Structure (SMILES) | pKa [2] |
| --- | --- | --- | --- |
| 306% | 231% | CC(C(=O)O)c1cccc(C(=O)c2ccccc2)c1 (stereo not drawn) [ketoprofen] | – |
| – | – | CCCCNc1ccc(C(=O)OCCN(C)C)cc1 [tetracaine hydrochloride] | 8.4 |
